Assay results published in patent US11795454B2, “Targeted delivery system” (Cedars-Sinai Medical Center, priority 2009, dated 2023).
Where two headings read alike, the source gives them in different places.

Legend:
[1] = Method: FIG. 26A. Stability in blood. […] N=3. […] Control conditions preventing digest include using heat-inactivated (HI) serum and 0° C. incubation. FIG. 26C. Assessing Dox retention in serum.
To study stability in blood, HerDox or Dox (60 uM each) were incubated in equivalent volumes of whole blood (containing 0.5 mM EDTA to prevent coagulation and freshly collected from the aorta of an anesthetized mouse following IACUC-approved procedures) for up to 60 min at 37° C., followed by centrifugation through 10K mwco filters. Retentate and filtrate fluorescences were extrapolated against a Dox calibration curve performed in blood plasma to correct for plasma-induced fluorescence shift. […] Control conditions preventing digest include using heat-inactivated serum and 0° C. incubation. […] Filtrates were collected and membranes washed 3× with HBS before collection and fluorescence measurement of retentates. All fluorescence spectra were obtained using a 515 nm cutoff filter.

U251 human glioma cells = assay: Targeted glioma cell death in vitro; format: cell-based; settings: single dose
Method: All treatments, N=3. FIG. 27A. Comparing cytotoxicity to HER2+ (MDAMB-435) and HER2− (MDA-MB-231) cells in separate cultures. Left, Relative survival (as % of untreated cells) on day 3 of treatment. Right, Micrograph of live cells after treatment. Control, mock (HBS) treatment. FIG. 27B, Receptor specificity of cytotoxicity. […] FIG. 27C, Toxicity to cells displaying differential HER2. Cytotoxicities from HerDox titrations were assessed on each cell line by metabolic assay and confirmed by crystal violet stain on day 3 of treatment. CD50 values (shown in log scale) were determined by non-linear regression analyses of HerDox killing curves using GraphPad Prism. The relative HER2 level of each cell line is shown next to each CD50 value. FIG. 27D, Targeting in a mixed MDA-MB-435(HER2+,GFP−)/MDA-MB-231(HER2−,GFP+) cell culture. Survival was determined by calculating the relative doubling time (DT) of experimental (exp) cells normalized by mock-treated (con) cells based on crystal violet stains (total cells) and GFP fluorescence (MDAMB-231 cells), and applying DTMDA-MB-435=DTTotal-DTMDA-MB-231 as previously described. Relative survival is shown for Day 2 of treatment. […] U251 cells were treated once with the indicated HerDox (and competitive inhibitor where indicated) or Dox doses and measured for cell survival at the indicated time points after treatment. * P<0.05 compared to Mock. […]

MDA-MB-435 cells = assay: Uptake and intracellular trafficking, confocal fluorescence microscopy; format: cell-based, human; settings: 0.5 uM final Dox concentration
Method: FIG. 28A. […] Dox fluorescence (magenta) is overlaid on DIC images. FIG. 28D. […] Relaxed (nicked) and supercoiled (sc) plasmid forms are indicated.
General procedures: MDA-MB-435 cells were plated ˜36 h before receiving HerDox or Dox (0.5 uM final Dox concentration) in fresh media containing the indicated constructs. For live cell assays, the cells (plated in chambers) were imaged at the indicated time points after treatment, under brightfield or DIC (where indicated) and fluorescence modes to identify the cell structure and Dox fluorescence, respectively. For fixed cell assays, the cells were plated on cover slips in 24-well plates (1×10^5 cells/well) ˜36 h before receiving HerDox or Dox in fresh complete media at 37° C., and separate samples fixed and processed for immunofluorescence against HerPBK10 following established procedures. A Leica SP2 laser-scanning confocal fluorescence microscope was used for fixed and live cell imaging.
The ability to visualize nuclear Dox fluorescence after cell exposure to free Dox has been used frequently to detect Dox uptake in cells, and has been attributed to interaction with histones. To determine whether these localization differences indicate that Dox remains attached to HerPBK10 during uptake, the inventors used a counterstain for HerPBK10.

Molecule: COc1cccc2c1C(=O)c1c(O)c3c(c(O)c1C2=O)C[C@@](O)(C(=O)CO)C[C@@H]3O[C@H]1C[C@H](N)[C@H](O)[C@H](C)O1.Cl [Dox, Doxorubicin-HCl, reference compound]
- Dox loss from retentates [1]: ~70%
- protection of the DNA duplex from serum degradation [1]: partially protected the DNA from serum degradation
- remaining free Dox (weak or non-specific binding to serum proteins) ([1]; mouse, serum): ~30%
- cell death (U251 human glioma cells): 75-80%
- subcellular localization of Dox fluorescence (MDA-MB-435 cells): detectable at the nuclear periphery immediately after administration

B1: HerDox: self-assembled nanoparticle of oligonucleotide duplex, doxorubicin and HerPBK10 (conjugate)
chain: LPPRLKEMKSQESAAGSKLVLRCETSSEYSSLRFKWFKNGNELNRKNKPQNIKIQKKPGKSELRINKASLADSGEYMCKVISKLGNDSASANITIVESNEIITGMPASTEGAYVSSESPIRISVSTEGANTSSSTSTSTTGTSHLVKCAEKEKTFCVNGGECFMVKDLSNPSRYLCKCQPGFTGARCTENVPMKVQNQEKAEELYMRRAAMYEEGPPPSYESVVSAAPVAAALGSPFDAPLDPPFVPPRYLRPTGGRNSIRYSELAPLFDTTRVYLVDNKSTDVASLNYQNDHSNFLTTVIQNNDYSPGEASTQTINLDDRSHWGGDLKTILHTNMPNVNEFMFTNKFKARVMVSRLPTKDNQVELKYEWVEFTLPEGNYSETMTIDLMNNAIVEHYLKVGRQNGVLESDIGVKFDTRNFRLGFDPVTGLVMPGVYTNEAFHPDIILLPGCGVDFTHSRLSNLLGIRKRQPFQEGFRITYDDLEGGNIPALLDVDAYQASLKDDTEQGGGGAGGSNSSGSGAEENSNAAAAAMQPVEDMNDHAIRGDTFATRAEEKRAEAEAAAEAAAPAAQPEVEKPQKKPVIKPLTEDSKKRSYNLISNDSTFTQYRSWYLAYNYGDPQTGIRSWTLLCTPDVTCGSEQVYWSLPDMMQDPVTFRSTRQISNFPVVGAELLPVHSKSFYNDQAVYSQLIRQFTSLTHVFNRFPENQILARPPAPTITTVSENVPALTDHGTLPLRNSIGGVQRVTITDARRRTCPYVYKALGIVSPRVLSSRTFKKKKKKKKKK
- Dox loss from retentates ([1]; 100% mouse serum, 30 min at 37° C., 10K mwco): no Dox loss was detected
- cell death (U251 human glioma cells): 96-99%
- subcellular localization of Dox fluorescence (MDA-MB-435 cells): nuclear accumulation by 60 min
